System: S.aureus (Smith)
Experiment: S.aureus (Smith) infection, oral medication
Assay type: in vivo
Design: DOSAGE LEVELS 300 / DOSAGE LEVELS 150 / DOSAGE LEVELS 75 / DOSAGE LEVELS 37.5 / DOSAGE LEVELS 18.75: unit not given here
Conditions: for DOSAGE LEVELS 18.75: dosage level 18.75, infection 10-100 LD50, Rt-IP; for DOSAGE LEVELS 37.5: dosage level 37.5, infection 10-100 LD50, Rt-IP; for DOSAGE LEVELS 75: dosage level 75, infection 10-100 LD50, Rt-IP; for DOSAGE LEVELS 150: dosage level 150, infection 10-100 LD50, Rt-IP; for DOSAGE LEVELS 300: dosage level 300, infection 10-100 LD50, Rt-IP

Compound	DOSAGE LEVELS 18.75	DOSAGE LEVELS 37.5	DOSAGE LEVELS 75	DOSAGE LEVELS 150	DOSAGE LEVELS 300	ED50 (Staphylococcus aureus, infection 10-100 LD50, Rt-IP, read-out: CD50 (the source's name))
CC[C@H]1OC(=O)[C@H](C)[C@@H](O[C@H]2C[C@@](C)(OC)[C@@H](OS(=O)(=O)CCNC(=O)c3ccc([N+](=O)[O-])cc3)[C@H](C)O2)[C@H](C)[C@@H](O[C@@H]2O[C@H](C)C[C@H](N(C)C)[C@H]2O)[C@](C)(O)C[C@@H](C)C(=NOC)[C@H](C)[C@@H](O)[C@]1(C)O [Example XV, 4"-O-[β-(p-Nitrobenzamido)ethyl]Sulfonyl Erythromycin A-9-O-Methyloxime]	10	10	0	0	60	
CC[C@H]1OC(=O)[C@H](C)[C@@H](O[C@H]2C[C@@](C)(OC)[C@@H](OS(=O)(=O)CCNC(=O)Nc3ccccc3)[C@H](C)O2)[C@H](C)[C@@H](O[C@@H]2O[C@H](C)C[C@H](N(C)C)[C@H]2O)[C@](C)(O)C[C@@H](C)C(=NOC)[C@H](C)[C@@H](O)[C@]1(C)O [VI, 4"-O-[β-(3-Phenylureido)-Ethyl]sulfonyl Erythromycin A-9-O-Methyloxime]	10	20	20	10	50	
CC[C@H]1OC(=O)[C@H](C)[C@@H](O[C@H]2C[C@@](C)(OC)[C@@H](OS(=O)(=O)CCNC(=O)CNC(=O)OCc3ccccc3)[C@H](C)O2)[C@H](C)[C@@H](O[C@@H]2O[C@H](C)C[C@H](N(C)C)[C@H]2O)[C@](C)(O)C[C@@H](C)C(=NOC)[C@H](C)[C@@H](O)[C@]1(C)O [XII, 4"-O-[β-(N-Carbobenzyloxyglycyl)Amidoethyl]Sulfonyl Erythromycin A-9-O-Methyloxime]	20	0	0	0	30	> 300 mg/kg
CC[C@H]1OC(=O)[C@H](C)[C@@H](O[C@H]2C[C@@](C)(OC)[C@@H](OS(=O)(=O)CCNS(=O)(=O)c3ccc([N+](=O)[O-])cc3)[C@H](C)O2)[C@H](C)[C@@H](O[C@@H]2O[C@H](C)C[C@H](N(C)C)[C@H]2O)[C@](C)(O)C[C@@H](C)C(=NOC)[C@H](C)[C@@H](O)[C@]1(C)O [XVII, 4"-O-[β-(p-Nitrobenzenesulfonamido)Ethyl]Sulfonyl Erythromycin A-9-O-Methyloxime]	0	10	10	0	80	
CC[C@H]1OC(=O)[C@H](C)[C@@H](O[C@H]2C[C@@](C)(OC)[C@@H](OS(=O)(=O)CCNC(=S)Nc3ccccc3)[C@H](C)O2)[C@H](C)[C@@H](O[C@@H]2O[C@H](C)C[C@H](N(C)C)[C@H]2O)[C@](C)(O)C[C@@H](C)C(=NOC)[C@H](C)[C@@H](O)[C@]1(C)O [Example V, 4"-O-[β-(3-Phenylthioureido)-1-Ethyl]sulfonyl Erythromycin-A-9-O-Methyloxime]	0	0	0	20	80	

Source: patent US4063014A, “4"-O-sulfonyl erythromycin-9-O-oxime derivatives” (Abbott Laboratories, priority 1975, dated 1977)
